The text below walks through data of ChEMBL document CHEMBL5034023, “Development of Multifunctional and Orally Active Cyclic Peptide Agonists of Opioid/Neuropeptide FF Receptors that Produce Potent, Long-Lasting, and Peripherally Restricted Antinociception with Diminished Side Effects” (J Med Chem, 2021).

Calls of active or inactive are those of the source. Bridge positions count the residues as written; N and C are the ends. Square brackets hold non-standard residues; d marks the D form. Peptide text beside a SMILES is read from it. NMeF = CN[C@@H](Cc1ccccc1)C(=O)O

Series [1] concerns the target Mu-type opioid receptor (Homo sapiens, UniProt P35372).
Series [2] concerns the target T1, Neuropeptide FF receptor 2 (Homo sapiens, UniProt Q9Y5X5). Put plainly: Agonist activity at NPFF2R (unknown origin) expressed in HEK293-A cells assessed as inhibition of forskolin-induced cAMP accumulation by measuring maximal efficacy preincubated for 30 mins in presence of 3-isobutyl-1-methylxanthine followed by forskolin and compound addition by competitive PKA binding assay relative to control. The series is classed as functional, cell-based. The note with it: filed as agonist.

The test system of series [3] is Mus musculus. Kind of series: Antinociceptive activity against Kunming mouse model of thermal-induced nociception assessed as maximum possible effect at 8681 nmol/kg, po measured after 60 min by tail flick test relative to control. Type of series: functional. The settings on record: 1 h.
Series [4] deals with Mus musculus. Kind of series: Antinociceptive activity against Kunming mouse model of thermal-induced nociception assessed as peripheral analgesia administered subcutaneously by tail-flick test. The series is classed as functional. The settings on record: sc. For orientation: Hot-plate and tail-flick tests time the reaction to a heat stimulus.
Series [5] has as its system Mus musculus. Put plainly: Antinociceptive activity in Kunming mouse assessed as analgesic tolerance administered subcutaneously once daily for 8 days by tail flick test. The settings on record: time 8.0 day. The series is classed as functional, organism-based.
Series [6] has as its target T1, Neuropeptide FF receptor 2. Kind of series: Agonist activity at NPFF2R (unknown origin) expressed in HEK293-A cells assessed as inhibition of forskolin-induced cAMP accumulation preincubated for 30 mins in presence of 3-isobutyl-1-methylxanthine followed by forskolin and compound addition by competitive PKA binding assay. The series is classed as functional, cell-based. The note with it: read-out: EC50.

Series [7] concerns the target T2, Neuropeptide FF receptor 1 (Homo sapiens, UniProt Q9GZQ6). Put plainly: Agonist activity at NPFF1R (unknown origin) expressed in HEK293-A cells assessed as inhibition of forskolin-induced cAMP accumulation preincubated for 30 mins in presence of 3-isobutyl-1-methylxanthine followed by forskolin and compound addition by competitive PKA binding assay. The series is classed as functional, cell-based. (In general: Cyclic AMP is a second messenger, typically raised through Gs and lowered through Gi signalling.)

Series [8] relates to Mus musculus. Kind of series: Antinociceptive activity against Kunming mouse model of thermal-induced nociception assessed as maximum possible effect at 8681 nmol/kg, po measured after 30 min by tail flick test relative to control. Type of series: functional. The note with it: 0.5 h.
Series [9] relates to Mus musculus. Put plainly: Antinociceptive activity against Kunming mouse model of thermal-induced nociception assessed as duration of analgesic effect administered subcutaneously by tail-flick test. The series is classed as functional.
A short description of series [10]: Metabolic stability in mouse plasma assessed as degradation half life at 0.01 M measured up to 360 mins. Type of series: ADME, cell-free.
Series [11] addresses T3, Delta-type opioid receptor (Homo sapiens, UniProt P41143). Kind of series: Agonist activity at DOR (unknown origin) expressed in HEK293-A cells assessed as inhibition of forskolin-induced cAMP accumulation preincubated for 30 mins in presence of 3-isobutyl-1-methylxanthine followed by forskolin and compound addition by competitive PKA binding assay. The series is classed as functional, cell-based.

Series [12] concerns Mus musculus. Put plainly: Antinociceptive activity against Kunming mouse model of thermal-induced nociception assessed as maximum possible effect at 8681 nmol/kg, po measured after 20 min by tail flick test relative to control. The series is classed as functional.
Series [13] concerns the target T3, Delta-type opioid receptor. Kind of series: Agonist activity at DOR (unknown origin) expressed in HEK293-A cells assessed as inhibition of forskolin-induced cAMP accumulation preincubated for 30 mins in presence of 3-isobutyl-1-methylxanthine followed by forskolin and compound addition by competitive PKA binding assay relative to control. The series is classed as functional, cell-based. The note with it: filed as agonist.

In series [14] the target is T2, Neuropeptide FF receptor 1. Kind of series: Agonist activity at NPFF1R (unknown origin) expressed in HEK293-A cells assessed as inhibition of forskolin-induced cAMP accumulation by measuring maximal efficacy preincubated for 30 mins in presence of 3-isobutyl-1-methylxanthine followed by forskolin and compound addition by competitive PKA binding assay relative to control. Type of series: functional, cell-based. The settings on record: filed as agonist.

In series [15] the target is Kappa-type opioid receptor (Homo sapiens, UniProt P41145). The series is classed as functional, cell-based, HEK293-A.
In series [16] the test system is Mus musculus. Kind of series: Antinociceptive activity against Kunming mouse model of thermal-induced nociception assessed as maximum possible effect at 264201 nmol/kg, po measured after 20 min by tail flick test relative to control. Type of series: functional.
The test system of series [17] is Mus musculus. Put plainly: Antinociceptive activity against Kunming mouse model of thermal-induced nociception assessed as maximum possible effect at 264201 nmol/kg, po measured after 30 min by tail flick test relative to control. Type of series: functional. The settings on record: 0.5 h.
Series [18] concerns Mus musculus. Kind of series: Antinociceptive activity against Kunming mouse model of thermal-induced nociception assessed as prolongation of tail-flick latency period at 264 umol/kg, po measured up to 240 mins by tail-flick test. Type of series: functional, organism-based. The settings on record: dose 264.0 µmol/kg, time min <=240.
Series [19] concerns Mus musculus. Kind of series: Antinociceptive activity against Kunming mouse model of thermal-induced nociception assessed as maximum possible effect at 264201 nmol/kg, po measured after 60 min by tail flick test relative to control. The note with it: 1 h. Type of series: functional.

T2 sequence (Q9GZQ6 whole entry): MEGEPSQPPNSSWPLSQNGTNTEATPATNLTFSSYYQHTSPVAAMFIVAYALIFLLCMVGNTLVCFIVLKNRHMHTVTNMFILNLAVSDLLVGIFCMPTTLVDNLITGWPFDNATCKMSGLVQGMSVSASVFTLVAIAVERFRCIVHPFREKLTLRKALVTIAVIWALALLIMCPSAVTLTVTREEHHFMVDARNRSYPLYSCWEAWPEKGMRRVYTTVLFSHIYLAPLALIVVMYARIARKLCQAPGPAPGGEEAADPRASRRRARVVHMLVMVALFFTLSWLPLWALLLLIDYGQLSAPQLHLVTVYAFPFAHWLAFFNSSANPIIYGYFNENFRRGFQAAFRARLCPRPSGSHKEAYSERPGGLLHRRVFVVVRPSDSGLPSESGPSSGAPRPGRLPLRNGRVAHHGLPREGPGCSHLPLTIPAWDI
T3 sequence (P41143 whole entry): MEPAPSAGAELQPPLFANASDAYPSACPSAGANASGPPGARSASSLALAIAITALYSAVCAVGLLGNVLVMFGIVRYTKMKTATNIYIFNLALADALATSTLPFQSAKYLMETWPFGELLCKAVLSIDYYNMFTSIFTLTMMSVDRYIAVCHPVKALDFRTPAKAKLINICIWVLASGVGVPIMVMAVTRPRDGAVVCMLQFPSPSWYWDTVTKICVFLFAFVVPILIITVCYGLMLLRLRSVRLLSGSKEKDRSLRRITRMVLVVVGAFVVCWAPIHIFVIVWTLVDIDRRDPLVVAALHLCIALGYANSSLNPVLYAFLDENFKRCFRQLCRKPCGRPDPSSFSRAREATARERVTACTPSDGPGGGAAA
Sequence of Mu-type opioid receptor (P35372 whole entry): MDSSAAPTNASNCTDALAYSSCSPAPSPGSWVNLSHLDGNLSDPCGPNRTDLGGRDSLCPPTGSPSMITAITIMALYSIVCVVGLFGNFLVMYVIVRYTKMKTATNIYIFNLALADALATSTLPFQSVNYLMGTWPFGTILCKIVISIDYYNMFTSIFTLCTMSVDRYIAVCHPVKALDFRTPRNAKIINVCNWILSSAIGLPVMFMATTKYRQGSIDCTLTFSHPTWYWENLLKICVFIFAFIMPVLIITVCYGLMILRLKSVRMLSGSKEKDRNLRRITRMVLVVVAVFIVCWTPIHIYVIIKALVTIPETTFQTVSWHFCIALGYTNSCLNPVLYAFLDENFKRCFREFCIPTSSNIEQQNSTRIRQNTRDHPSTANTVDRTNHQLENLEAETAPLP
T1 sequence (Q9Y5X5 whole entry): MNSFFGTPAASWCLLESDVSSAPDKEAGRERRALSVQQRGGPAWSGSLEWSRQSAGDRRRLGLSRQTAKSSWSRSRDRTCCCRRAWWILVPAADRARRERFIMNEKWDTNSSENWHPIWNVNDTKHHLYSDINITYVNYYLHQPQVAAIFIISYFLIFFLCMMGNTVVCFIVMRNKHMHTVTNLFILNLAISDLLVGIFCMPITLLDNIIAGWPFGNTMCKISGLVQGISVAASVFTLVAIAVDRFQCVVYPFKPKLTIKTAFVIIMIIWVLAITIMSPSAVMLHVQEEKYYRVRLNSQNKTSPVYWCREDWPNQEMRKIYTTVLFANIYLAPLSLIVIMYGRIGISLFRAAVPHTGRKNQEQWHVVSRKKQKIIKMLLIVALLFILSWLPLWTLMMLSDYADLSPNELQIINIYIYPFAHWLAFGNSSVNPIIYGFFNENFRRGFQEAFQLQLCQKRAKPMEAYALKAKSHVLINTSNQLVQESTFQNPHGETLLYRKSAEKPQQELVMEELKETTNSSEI
Sequence of Kappa-type opioid receptor (P41145 whole entry): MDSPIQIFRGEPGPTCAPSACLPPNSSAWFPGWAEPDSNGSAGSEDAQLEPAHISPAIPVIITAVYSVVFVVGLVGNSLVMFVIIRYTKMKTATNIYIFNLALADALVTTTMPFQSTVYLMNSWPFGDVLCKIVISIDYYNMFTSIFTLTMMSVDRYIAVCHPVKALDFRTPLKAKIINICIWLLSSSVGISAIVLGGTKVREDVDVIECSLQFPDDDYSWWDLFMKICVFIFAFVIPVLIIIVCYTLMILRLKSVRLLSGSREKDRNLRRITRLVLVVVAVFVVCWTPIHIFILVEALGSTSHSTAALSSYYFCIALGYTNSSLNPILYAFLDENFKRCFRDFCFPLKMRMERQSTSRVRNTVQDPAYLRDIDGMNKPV

In the case of `CN1C(=O)CNC(=O)[C@@H](NC(=O)[C@@H](N)Cc2ccc(O)cc2)CCCCNC(=O)C[C@H](C(=O)N2CCC[C@H]2C(=O)N[C@@H](CCC(N)=O)C(=O)N[C@@H](CCCNC(=N)N)C(=O)N[C@@H](Cc2ccccc2)C(N)=O)NC(=O)[C@@H]1Cc1ccccc1` (H-YKG[NMeF][dD]PQRF-NH2; lactam 2-5), the EC50 (as a rule, the midpoint of the concentration-response curve) in series [1] stood at 167 nM; in [6], 81.5 nM; in series [7], 104 nM; in series [11] it was 923 nM. Besides, the values for the Emax in [2], in series [13] and in series [14] were 62.4%, 62.2% and 76.2%, respectively. In addition, the MPE in series [3] is 70.6%; in [8], 82.5%; in [12], 94.1%. Besides, the ED50 (commonly the midpoint of the dose-response relation) in series [4] was determined as 0.0263 µmol/kg. The outcome in [5] was inactive. Also, the Tlast in series [9] worked out at 240 min. Moreover, in [10], the half-life (commonly the time needed for the level to fall by half in the phase considered) at 10000 µM stood at 6.7 min.
Turning to `CN1C(=O)CNC(=O)[C@H](NC(=O)[C@@H](N)Cc2ccc(O)cc2)CCCCNC(=O)C[C@H](C(=O)N2CCC[C@H]2C(=O)N[C@@H](CCC(N)=O)C(=O)N[C@@H](CCCNC(=N)N)C(=O)N[C@@H](Cc2ccccc2)C(N)=O)NC(=O)[C@@H]1Cc1ccccc1` (H-Y[dK]G[NMeF][dD]PQRF-NH2; lactam 2-5), the EC50 in series [1] came out at 586 nM; in series [6] it was 190 nM; in [7], 528 nM; in series [11], 581 nM. Further, the Emax (usually the maximal effect, on the per cent scale that the assay sets) in [2] is 59%; in series [13] it was 60.3%; in [14], 75.6%. Moreover, the MPE in series [3] was found to be 74.1%; in [8], 94.1%; in series [12], 92.6%. The ED50 in series [4] was 0.0201 µmol/kg. Besides, the result in [5] was inactive. Moreover, in series [9], the Tlast is recorded as 240 min. In addition, the half-life at 10000 µM in [10] turned out to be 18.7 min.
`CN1C(=O)CNC(=O)[C@@H](NC(=O)[C@@H](N)Cc2ccc(O)cc2)CCCCNC(=O)C[C@@H](C(=O)N2CCC[C@H]2C(=O)N[C@@H](CCC(N)=O)C(=O)N[C@@H](CCCNC(=N)N)C(=O)N[C@@H](Cc2ccccc2)C(N)=O)NC(=O)[C@@H]1Cc1ccccc1` (H-YKG[NMeF]DPQRF-NH2; lactam 2-5): the EC50 came out at 72.6 nM in series [1]; 112 nM in series [6]; 28.9 nM in [7]; 28.2 nM in series [11]; 320 nM in series [15]. In addition, the Emax in series [2] was 68.1%; in [13], 65.7%; in [14], 80.6%. Moreover, the MPE in [3] is 76.3%; in series [8], 93.2%; in [12] it was 93.9%. Further, the ED50 in [4] came out at 0.022 µmol/kg. Besides, the result in series [5] was inactive. The Tlast in series [9] was determined as 240 min. Further, the half-life at 10000 µM in series [10] amounted to 9.9 min.
Take `CN1CC[C@]23c4c5ccc(O)c4O[C@H]2[C@@H](O)C=C[C@H]3[C@H]1C5` [MORPHINE]: the MPE in series [16] is given as 75.3%; in [17] it was 87.6%; in [19], 63%. In addition, the result in series [18] was Active.
